Consider 3 compounds from ChEMBL document CHEMBL1149004, “Ficulinic acid A and B, two novel cytotoxic straight-chain acids from the sponge Ficulina ficus” (1986).

For test [1], the system named is Walker 256. The test can be described thus: Growth inhibition of rat Walker 256 cells. Format: functional, cell-based.
In test [2] the test system is L1210. The test can be described thus: Cytotoxicity against mouse L1210 cells assessed as inhibition of DNA synthesis by [3H]thymidine incorporation assay. Type of test: functional. The settings on record: read-out: ID50 (the source's name). Background: Dividing cells build labelled thymidine or BrdU into new DNA.

Each structure is given as a SMILES string. ≈ marks a conversion by molar mass, not a printed value. Calls of active or inactive are those of the source. The rule behind the calls is not given here.

With `CCCCC/C=C\CCC(=O)CCCCCCO`, in test [1], the outcome was Active.
Turning to `CCCCCCC/C=C/C(=O)CCCCCCCCCC(CCCCCCC)C(=O)O` (stereo not drawn) [FICULINIC ACID B], in test [2], the IC50 was determined as 12 µg/mL (≈ 27.5 µM).
With `CCCCCCC/C=C/C(=O)CCCCCCCC(CCCCCCC)C(=O)O` (stereo not drawn) [FICULINIC ACID A], in test [2], the IC50 was found to be 10 µg/mL (≈ 24.5 µM).
